Results reported in patent US12552753B2, “Methods and compositions for targeting Tregs using CCR8 inhibitors” (Nanjing Immunophage Biomedical Co., Ltd., priority 2020, dated 2026).
Structures can show the parent of a compound that is named as a salt.

What follows are molecules tested against CCR8 (Homo sapiens, UniProt P51685) (assay: Tango assay (Tango-CCR8-Gal4-CHO-K1 cells, CCL1-stimulated, ONE-Glo luminescence)). Conditions: Tango Assay IC50, Inhibition of CCR8 Tango cell in vitro.
Sequence of CCR8 (P51685 whole entry, the tested form may be a part): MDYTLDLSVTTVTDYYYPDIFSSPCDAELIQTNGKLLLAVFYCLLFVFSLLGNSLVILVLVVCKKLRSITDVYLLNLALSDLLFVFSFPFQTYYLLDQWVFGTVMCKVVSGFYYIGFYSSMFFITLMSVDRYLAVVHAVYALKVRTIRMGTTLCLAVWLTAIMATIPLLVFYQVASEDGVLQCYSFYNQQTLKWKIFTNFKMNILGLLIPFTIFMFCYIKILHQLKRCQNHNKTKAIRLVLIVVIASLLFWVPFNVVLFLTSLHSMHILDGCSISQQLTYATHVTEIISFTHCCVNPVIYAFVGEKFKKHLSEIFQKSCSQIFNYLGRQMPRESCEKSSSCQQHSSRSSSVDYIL
Molecule Cc1cc(S(=O)(=O)N[C@H](C)C2CCN(C(=O)OC(C)(C)C)CC2)c(Cl)cc1NC(=O)c1ccccc1C [Compound 168, (R)-tert-butyl 4-(1-(2-chloro-5-methyl-4-(2-methylbenzamido)phen-ylsulfonamido)ethyl)pi-peridine-1-carboxylate] has an IC50 of 1.3 µM. For Cc1cc(S(=O)(=O)N[C@H](C)C2CCNCC2)c(Cl)cc1NC(=O)c1ccccc1C [Compound 169A, (R)-N-(5-chloro-2-methyl-4-(N-(1-(piperidin-4-yl)ethyl)sulfamoyl)phen-yl)-2-methylbenzamide hydrochloride], the IC50 was 0.012 µM. With Cc1cc(S(=O)(=O)NC(C)C2CC3CCC2CC3)c(C)cc1NC(=O)c1ccccc1C (centres unmarked) [Compound 170, N-(4-(N-(1-(bicyclo[2.2.2]octan-2-yl)ethyl)sulfamoyl)-2,5-dimethylphenyl)-2-methylbenzamide] the IC50 was 0.0037 µM. Cc1cc(S(=O)(=O)N[C@H](C)C2CCNCC2)c(C)cc1NC(=O)c1ccccc1C [Compound 171A, (R)-N-(2,5-dimethyl-4-(N-(1-(piperidin-4-yl)ethyl)sulfamoyl)phen-yl)-2-methylbenzamide hydrochloride] showed an IC50 of 0.019 µM. Work on CC(=O)Nc1cc(C)c(S(=O)(=O)N[C@H](C)C2CCNCC2)cc1C [Compound 172A, (R)-N-(2,5-dimethyl-4-(N-(1-(piperidin-4-yl)ethyl)sulfamoyl)phen-yl)acetamide hydrochloride] yielded an IC50 of over 10 µM. COc1cc(S(=O)(=O)NC(C)C2CC3CCC2CC3)c(C)cc1NC(=O)c1ccccc1C (centres unmarked) [Compound 173, N-(4-(N-(1-(bicyclo[2.2.2]octan-2-yl)ethyl)sulfamoyl)-2-methoxy-5-methylphenyl)-2-methylbenzamide] gave an IC50 of 0.022 µM. Work on Cc1cc(S(=O)(=O)N[C@H](C)C2CCN(C(=O)OC(C)(C)C)CC2)c(F)cc1NC(=O)c1ccccc1C [Compound 174, (R)-tert-butyl 4-(1-(2-fluoro-5-methyl-4-(2-methylbenzamido)phen-ylsulfonamido)ethyl)pi-peridine-1-carboxylate] yielded an IC50 of 0.914 µM. Work on Cc1cc(S(=O)(=O)N[C@H](C)C2CCNCC2)c(F)cc1NC(=O)c1ccccc1C [Compound 175, (R)-N-(5-fluoro-2-methyl-4-(N-(1-(piperidin-4-yl)ethyl)sulfamoyl)phen-yl)-2-methylbenzamide] yielded an IC50 of 0.026 µM. Cc1ccccc1C(=O)Nc1ccc(S(=O)(=O)N[C@H](C)C2CCN(C(=O)OC(C)(C)C)CC2)c(F)c1C [Compound 176, (R)-tert-butyl 4-(1-(2-fluoro-3-methyl-4-(2-methylbenzamido)phen-ylsulfonamido)ethyl)pi-perridine-1-carboxylate] showed an IC50 of 0.711 µM. Work on Cc1ccccc1C(=O)Nc1ccc(S(=O)(=O)N[C@H](C)C2CCNCC2)c(F)c1C [Compound 177A, (R)-N-(3-fluoro-2-methyl-4-(N-(1-(piperidin-4-yl)ethyl)sulfamoyl)phen-yl)-2-methylbenzamide, hydrochloride] yielded an IC50 of 0.046 µM. For Cc1ccccc1C(=O)Nc1ccc(S(=O)(=O)N[C@H](C)C2CCN(C(=O)OC(C)(C)C)CC2)c(Cl)c1C [Compound 178, (R)-tert-butyl 4-(1-(2-chloro-3-methyl-4-(2-methylbenzmido)phen-ylsulfonamido)ethyl)pi-perridine-1-carboxylate], the IC50 was 0.378 µM. With Cc1ccccc1C(=O)Nc1ccc(S(=O)(=O)N[C@H](C)C2CCNCC2)c(Cl)c1C [Compound 179A, (R)-N-(3-chloro-2-methyl-4-(N-(1-(piperidin-4-yl)eth-yl)sulfamoyl)phen-yl)-2-methylbenzamide, hydrochloride] the IC50 was 0.158 µM. Cc1ccccc1C(=O)Nc1c(C)cc(S(=O)(=O)N[C@H](C)C2CCNCC2)cc1Cl [Compound 180A, (R)-N-(2-chloro-6-methyl-4-(N-(1-(piperidin-4-yl)eth-yl)sulfamoyl)phen-yl)-2-methylbenzamide hydrochloride] gave an IC50 of 0.002 µM. Cc1cc(S(=O)(=O)N[C@H](C)C2CCNCC2)cc(C)c1NC(=O)c1ccccc1 [Compound 181, (R)-N-(2,6-dimethyl-4-(N-(1-(piperidin-4-yl)ethyl)sulfa-moyl)phenyl)benza-mide hydrochloride] showed an IC50 of over 10 µM.
